In brackets after ≈: the same amount, converted by molar mass.
Legend:
Format in all cases: functional
Escherichia coli = test: Antibacterial activity against Escherichia coli MTCC 443 after 24 hr by broth microdilution method; details: MTCC 443, 24 h
Bacillus subtilis = test: Antibacterial activity against Bacillus subtilis MTCC 441 after 24 hr by broth microdilution method; details: MTCC 441, 24 h
Clostridium tetani = test: Antibacterial activity against Clostridium tetani MTCC 449 after 24 hr by broth microdilution method; details: MTCC 449, 24 h
Vibrio cholerae = test: Antibacterial activity against Vibrio cholerae MTCC 3906 after 24 hr by broth microdilution method; details: MTCC 3906, 24 h
Aspergillus fumigatus = test: Antifungal activity against Aspergillus fumigatus MTCC 3008 after 48 hr by broth microdilution method; details: MTCC 3008, 48 h
Streptococcus pneumoniae = test: Antibacterial activity against Streptococcus pneumoniae MTCC 1936 after 24 hr by broth microdilution method; details: MTCC 1936, 24 h
Salmonella typhi = test: Antibacterial activity against Salmonella enterica subsp. enterica serovar Typhi MTCC 98 after 24 hr by broth microdilution method; details: MTCC 98, 24 h
Candida albicans = test: Antifungal activity against Candida albicans MTCC 227 after 48 hr by broth microdilution method; details: MTCC 227, 48 h

Structure (SMILES)	MIC (Escherichia coli)	MIC (Bacillus subtilis)	MIC (Clostridium tetani)	MIC (Vibrio cholerae)	MIC (Aspergillus fumigatus)	MIC (Streptococcus pneumoniae)	MIC (Salmonella typhi)	MIC (Candida albicans)
Cc1ccc(Sc2nc3ccc(C)cc3cc2-c2c(C#N)c(N)nc(Sc3ccccc3)c2C#N)cc1	100 µg/mL (≈ 194 µM)	250 µg/mL (≈ 485 µM)	500 µg/mL (≈ 970 µM)	250 µg/mL (≈ 485 µM)	500 µg/mL (≈ 970 µM)	250 µg/mL (≈ 485 µM)	200 µg/mL (≈ 388 µM)	> 1000 µg/mL
O=Cc1cc2ccccc2nc1Sc1ccccc1	200 µg/mL (≈ 754 µM)	200 µg/mL (≈ 754 µM)	250 µg/mL (≈ 942 µM)	200 µg/mL (≈ 754 µM)	1000 µg/mL (≈ 3770 µM)	200 µg/mL (≈ 754 µM)	250 µg/mL (≈ 942 µM)	250 µg/mL (≈ 942 µM)
Cc1ccc(Sc2nc3ccccc3cc2-c2c(C#N)c(N)nc(Sc3ccc(C)cc3)c2C#N)cc1	250 µg/mL (≈ 485 µM)	250 µg/mL (≈ 485 µM)	250 µg/mL (≈ 485 µM)	200 µg/mL (≈ 388 µM)	1000 µg/mL (≈ 1940 µM)	200 µg/mL (≈ 388 µM)	250 µg/mL (≈ 485 µM)	1000 µg/mL (≈ 1940 µM)
Cc1ccc(Sc2nc3ccc(C)cc3cc2-c2c(C#N)c(N)nc(Sc3ccc(C)cc3)c2C#N)cc1	200 µg/mL (≈ 378 µM)	100 µg/mL (≈ 189 µM)	250 µg/mL (≈ 472 µM)	250 µg/mL (≈ 472 µM)	1000 µg/mL (≈ 1890 µM)	200 µg/mL (≈ 378 µM)	125 µg/mL (≈ 236 µM)	250 µg/mL (≈ 472 µM)
CC1(C)S[C@@H]2[C@H](NC(=O)[C@H](N)c3ccccc3)C(=O)N2[C@H]1C(=O)O [AMPICILLIN]	100 µg/mL (≈ 286 µM)	250 µg/mL (≈ 715 µM)	250 µg/mL (≈ 715 µM)	100 µg/mL (≈ 286 µM)		100 µg/mL (≈ 286 µM)	100 µg/mL (≈ 286 µM)	
Cc1ccc(Sc2nc(N)c(C#N)c(-c3cc4cc(C)ccc4nc3Sc3ccccc3)c2C#N)cc1	250 µg/mL (≈ 485 µM)	500 µg/mL (≈ 970 µM)	200 µg/mL (≈ 388 µM)	500 µg/mL (≈ 970 µM)	500 µg/mL (≈ 970 µM)	250 µg/mL (≈ 485 µM)	100 µg/mL (≈ 194 µM)	1000 µg/mL (≈ 1940 µM)
Cc1ccc(Sc2nc3ccccc3cc2-c2c(C#N)c(N)nc(Sc3ccccc3)c2C#N)cc1	200 µg/mL (≈ 399 µM)	250 µg/mL (≈ 498 µM)	200 µg/mL (≈ 399 µM)	200 µg/mL (≈ 399 µM)	> 1000 µg/mL	250 µg/mL (≈ 498 µM)	125 µg/mL (≈ 249 µM)	500 µg/mL (≈ 997 µM)
Cc1ccc(Sc2nc3ccc(C)cc3cc2C=O)cc1	250 µg/mL (≈ 852 µM)	250 µg/mL (≈ 852 µM)	250 µg/mL (≈ 852 µM)	125 µg/mL (≈ 426 µM)	250 µg/mL (≈ 852 µM)	250 µg/mL (≈ 852 µM)	200 µg/mL (≈ 682 µM)	500 µg/mL (≈ 1700 µM)
Cc1ccc(Sc2nc3ccccc3cc2-c2c(C#N)c(N)nc(Sc3ccc(Cl)cc3)c2C#N)cc1	200 µg/mL (≈ 373 µM)	200 µg/mL (≈ 373 µM)	100 µg/mL (≈ 187 µM)	200 µg/mL (≈ 373 µM)	> 1000 µg/mL	250 µg/mL (≈ 466 µM)	200 µg/mL (≈ 373 µM)	> 1000 µg/mL
Cc1ccc2nc(Sc3ccc(Cl)cc3)c(C=O)cc2c1	100 µg/mL (≈ 319 µM)	500 µg/mL (≈ 1590 µM)	500 µg/mL (≈ 1590 µM)	100 µg/mL (≈ 319 µM)	1000 µg/mL (≈ 3190 µM)	500 µg/mL (≈ 1590 µM)	125 µg/mL (≈ 398 µM)	200 µg/mL (≈ 637 µM)
O=Cc1cc2ccccc2nc1Sc1ccc(Cl)cc1	250 µg/mL (≈ 834 µM)	250 µg/mL (≈ 834 µM)	200 µg/mL (≈ 667 µM)	200 µg/mL (≈ 667 µM)	> 1000 µg/mL	100 µg/mL (≈ 334 µM)	250 µg/mL (≈ 834 µM)	1000 µg/mL (≈ 3340 µM)
COC1=CC(=O)C[C@@H](C)[C@]12Oc1c(Cl)c(OC)cc(OC)c1C2=O [GRISEOFULVIN]					100 µg/mL (≈ 283 µM)			500 µg/mL (≈ 1420 µM)
Cc1ccc2nc(Sc3ccccc3)c(-c3c(C#N)c(N)nc(Sc4ccc(Cl)cc4)c3C#N)cc2c1	50 µg/mL (≈ 93.3 µM)	500 µg/mL (≈ 933 µM)	200 µg/mL (≈ 373 µM)	200 µg/mL (≈ 373 µM)	250 µg/mL (≈ 466 µM)	500 µg/mL (≈ 933 µM)	100 µg/mL (≈ 187 µM)	> 1000 µg/mL
Cc1ccc(Sc2nc(N)c(C#N)c(-c3cc4cc(C)ccc4nc3Sc3ccc(Cl)cc3)c2C#N)cc1	200 µg/mL (≈ 364 µM)	100 µg/mL (≈ 182 µM)	250 µg/mL (≈ 454 µM)	250 µg/mL (≈ 454 µM)	250 µg/mL (≈ 454 µM)	100 µg/mL (≈ 182 µM)	200 µg/mL (≈ 364 µM)	> 1000 µg/mL

Reference: ChEMBL document CHEMBL3045635, “Synthesis and in vitro antimicrobial evaluation of novel 2-amino-6-(phenylthio)-4-(2-(phenylthio)quinolin-3-yl)pyridine-3,5-dicarbonitriles” (2013)
